Experimental findings from patent US7718677B2, “Methods and compositions for reduction of side effects of therapeutic treatments” (priority 2007, dated 2010) are described below.

Like-named read-outs stand apart in the source and are kept apart here.

Experiment [1] concerns 6-hydroxydopamine-lesioned rats. The note with it: for L-dopa-induced AIMs, time course: L-dopa 8 then 12 mg/kg ip, ANOVA P<0.001; for L-dopa-induced AIMs, crossover to nicotine: rats initially without nicotine then given nicotine. How it is done: Animals. Experiments were performed using male Sprague-Dawley rats (initial weight 250 g) purchased from Charles River Laboratories (Gilroy, Calif.). They were housed 2 per cage under a 12-12 h light-dark cycle in a temperature-controlled room with free access to food and water. Three to four days after arrival, the rats were unilaterally lesioned with 6-hydroxydopamine as previously described (Cenci et al., 1998 Eur J Neurosci 10:2694-2706.; Cenci et al., 2002 Nat Rev Neurosci 3:574-579). During the lesioning procedure the rats were maintained under isofluorane anesthesia (2%). They were placed in a Kopf stereotaxic instrument and burr holes drilled through the skull at the following coordinates relative to the Bregma and dural surface: (1) anteroposterior, −4.4; lateral, 1.2; ventral, 7.8; tooth bar at −2.4; (2) anteroposterior, −4.0; lateral, 0.75; ventral, 8.0; tooth bar at +3.4 (Cenci et al., 1998 Eur J Neurosci 10:2694-2706.; Cenci et al., 2002 Nat Rev Neurosci 3:574-579). 6-Hydroxydopamine was dissolved in 0.02% ascorbic acid/saline at a concentration of 3 ug/ul. Two μl was stereotaxically injected at each of these sites for a total of […] into the right ascending dopamine fiber bundle. Infusion of 6-hydroxydopamine into the target area was over a 2-min period, with the cannula maintained at the site of injection for a further 2 min. All procedures conformed to the NIH Guide for the Care and Use of Laboratory Animals and were approved by the Institutional Animal Care and Use Committee.
Behavioral testing. Two and three weeks after lesioning, rats were tested for rotational behavior in an automated behavioral measurement apparatus (ROTOMAX, AccuScan Instruments Inc. Columbus, Ohio, USA). Each rat was placed in a cylindrical glass chamber for 30 min for acclimatization, after which amphetamine (4.0 mg/kg ip) was administered. The behavior was monitored for an additional 90 min, with rats making at least 100 ipsilateral turns used for further study.
Nicotine treatment. When the behavioral testing was completed, rats were treated with nicotine via the drinking water that yields an intermittent dosing regimen or via minipump that provides a constant level of nicotine. For administration via the drinking water, rats were first provided with a solution containing 1% saccharin (Sigma Chemical Co., St. Louis, Mo.) to mask the bitter taste of nicotine. After 2-3 days of acclimation, nicotine (free base, Sigma Chemical Co., St. Louis, Mo.) was added to the saccharin-containing drinking solution of the treated group (pH 7.0). Nicotine was initially given at a concentration of 25 μg/ml nicotine for 2 days.
In a separate series of experiments, rats were given nicotine continuously via Alzet minipumps (model 2004-200 μl), which secrete nicotine for 28 days. These were subcutaneously implanted according to the manufacturer's instruction. Pumps were filled with either sterilized water or nicotine base in water to deliver 2 mg/kg/d.
L-dopa treatment. Three weeks after initiation of the 50 ug/ml nicotine dose, the rats received single daily intraperitoneal injections of 8 mg/kg L-dopa methyl ester plus 15 mg/kg benserazide (both from Sigma Chemical Co., St. Louis, Mo.) (Cenci et al., 1998 Eur J Neurosci 10:2694-2706.; Cenci et al., 2002 Nat Rev Neurosci 3:574-579). After 3 weeks of daily L-dopa dosing, abnormal involuntary movements (AIMs) were quantified. These included (1) axial dystonia, contralateral twisted posturing of the neck and upper body; (2) orolingual dyskinesia, stereotyped jaw movements and contralateral tongue protrusion; and (3) forelimb dyskinesia, repetitive rhythmic jerks or dystonic posturing of the contralateral forelimb and/or grabbing movements of the contralateral paw (Cenci et al., 1998 Eur J Neurosci 10:2694-2706.; Cenci et al., 2002 Nat Rev Neurosci 3:574-579; Carta et al., 2006 Neurochem 96:1718-1727).

Experiment [2] concerns corticostriatal slices from nonhuman primates. To be noted: nicotine treatment.
Excerpt: Brain slices at the level of the globus pallidus have generally been used as they incorporate many of the structures present in basal ganglia motor circuits. This includes glutamatergic inputs from the cortex that densely innervate striatal medium spiny GABAergic neurons and are a determinant of neuronal activity in striatal projection neurons. Synaptic plasticity, defined as long-lasting changes in the efficacy of synaptic transmission, has been identified in corticostriatal slices in vitro in the form of long-term potentiation (LTP), long-term depression (LTD) and depotentiation. In slices from unlesioned rats, high-frequency stimulation (HFS) of glutamatergic corticostriatal afferent fibers can induce both LTD and LTP in striatal medium spiny neurons, most likely due to a release of striatal glutamate which triggers dopamine release. Stimulation of both D1 and D2 receptors is required for the induction of LTD, whereas these two receptor subtypes play opposing roles in LTP.
The subject of a further experiment is levodopa-primed monkeys. The method, then: Levodopa administration: Monkeys were administered levodopa/carbidopa (5 mg/kg and 1.25 mg/kg, respectively), prepared by crushing a tablet of Sinemet® CR 100/25 (DuPont Pharma) and dissolving it in water. This dose of levodopa is within the range of that prescribed to Parkinson's disease patients. The monkeys were gavaged twice daily at 3.5-hour intervals for 8 weeks at a time using a 5-day-on/2-day-off schedule (Hsu et al., J Pharmacol Exp Ther. 2004; 311:770-777). During levodopa treatment, the monkeys were given fruits in the morning and food pellets 3.5 hours after the afternoon levodopa dose to optimize gastrointestinal absorption.
Dyskinesias were rated from videotapes, as described (Hsu et al., J Pharmacol Exp Ther. 2004; 311:770-777). This included a one hour baseline period (no drugs) from ˜8:00-9:00 AM, followed by two 3.5-hour treatment periods with levodopa starting at ˜9:00 AM and ˜12:30 PM. Dyskinesias were rated for 2-minute periods at 30-minute intervals by two independent raters blinded to treatment. They were rated on a scale of 0 (no dyskinesias) to 4; a score of 1 was indicative of subtle dyskinesias that were not sustained; 2, mild dyskinesias that were sustained; 3, moderate dyskinesias that impaired the ability to remain stationary; 4, severe dyskinesias that were generalized and incapacitating.
Data analyses: The levodopa treatment protocol used in the present study involved a 5-day-on/2-day-off schedule. Parkinsonian ratings were done on Monday and Friday of each week, with the score averaged over the two days. Dyskinesias ratings were determined by averaging the scores on Wednesday and Thursday of each week. All values are expressed as the mean±SE of the indicated number of animals. Results were compared using paired t-tests or analysis of variance (ANOVA) followed by Bonferroni multiple comparison post hoc test, using Prism® program (GraphPad Software, Inc, San Diego, Calif.). A level of 0.05 was considered significant.
Materials and methods were the same as in example 1.
A crossover study, was then conducted, in which the animals originally receiving nicotine were given vehicle (n=3), while the vehicle-treated animals were now administered nicotine (n=4). Levodopa treatment was stopped. […] Monkeys that had previously received nicotine were placed on vehicle drinking water for the same time period. All monkeys were then treated with levodopa (5 mg/kg, twice daily 3.5 hours apart) for a subsequent 8-week period. Since both groups of monkeys had previously received levodopa, they were termed levodopa-primed.

Turning to `CN1CCCC1c1cccnc1` (centres unmarked) [Nicotine, S-3-(1-methyl-2-pyrrolidinyl)pyridine], the “individual AIM components (total, axial, oral, forelimb)” value is “reduced” in experiment [1] (constant nicotine 2 mg/kg/d via minipump vs no nicotine, FIG. 15) and “reduced” in experiment [1] (intermittent nicotine in drinking solution vs saccharin only, FIG. 12). The “L-dopa-induced AIMs, time course” value in experiment [1] (continuous nicotine 2 mg/kg/d via minipump, FIG. 14) was “significant effect”; in experiment [1] (intermittent nicotine 50 μg/ml in drinking water, FIG. 11), “significant effect”. Moreover, the “AIMs development after removal of nicotine” value is on record as “increase” in experiment [1] (drinking water, rats initially on nicotine then given saccharin, FIG. 13) and “increase” in experiment [1] (minipump, rats initially on nicotine then given minipumps containing no nicotine, FIG. 16). Besides, the “L-dopa-induced AIMs, crossover to nicotine” value was “reduced” in experiment [1] (drinking water, FIG. 13) and “reduced” in experiment [1] (minipump, FIG. 16). In experiment [2], the “long-term depression (LTD) lost as a result of nigrostriatal damage” value was “restores”. Also, the “total dyskinetic scores after removal of nicotine” value in the experiment on levodopa-primed monkeys (animals removed from nicotine treatment, week 4, 6 and 8 of levodopa treatment) is given as “significantly enhanced”. Also, the reduction of dyskinesias in the experiment on levodopa-primed monkeys (levodopa-primed monkeys) was ~35%. The duration of dyskinesias entry in the experiment on levodopa-primed monkeys (levodopa-primed monkeys switched to nicotine) is “decrease”. For the same molecule, in the experiment on levodopa-primed monkeys (levodopa-primed monkeys switched to nicotine, last 4 weeks of levodopa treatment), the peak dyskinesias result is “significantly reduced”. In addition, in the experiment with levodopa-primed monkeys (levodopa-primed monkeys switched to nicotine, vs same animal before crossover, all time points, paired t-tests), the total dyskinesias result is on record as “significantly reduced”.
